Laboratory results published in ChEMBL document CHEMBL3862033 (J Med Chem, 2016).

The molecules below were run against 5-hydroxytryptamine receptor 7 (Homo sapiens) (UniProt P34969) (assay: Displacement of [3H]LSD from human 5-HT7A receptor expressed in HEK cell membranes at 10 uM incubated for 90 mins under dark condition by microbeta scintillation counting method relative to control). Conditions: HEK293.
5-hydroxytryptamine receptor 7 (Homo sapiens), sequence (P34969 whole entry): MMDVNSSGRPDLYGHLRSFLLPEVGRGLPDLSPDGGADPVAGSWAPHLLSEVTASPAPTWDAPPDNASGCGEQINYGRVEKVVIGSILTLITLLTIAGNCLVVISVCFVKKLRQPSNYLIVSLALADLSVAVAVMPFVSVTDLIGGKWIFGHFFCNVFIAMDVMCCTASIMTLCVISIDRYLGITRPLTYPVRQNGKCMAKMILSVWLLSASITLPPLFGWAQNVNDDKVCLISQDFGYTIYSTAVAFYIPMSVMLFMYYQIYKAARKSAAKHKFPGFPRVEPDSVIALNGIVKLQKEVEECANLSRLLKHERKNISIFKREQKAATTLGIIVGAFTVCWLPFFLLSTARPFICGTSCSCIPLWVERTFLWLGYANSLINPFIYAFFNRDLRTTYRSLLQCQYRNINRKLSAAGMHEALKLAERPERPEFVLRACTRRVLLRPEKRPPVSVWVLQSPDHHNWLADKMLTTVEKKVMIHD
With CCCOC(=O)[C@@]12C[C@@H]1[C@@H](n1cnc3c(NC(C4CC4)C4CC4)nc(Cl)nc31)[C@H](O)[C@@H]2O the inhibition was < 50%.

Each molecule was assayed against T1, 5-hydroxytryptamine receptor 2A (Homo sapiens, UniProt P28223) (assay: Displacement of [3H]ketanserin from human 5-HT2A receptor expressed in HEK-T cell membranes incubated for 90 mins under dark condition by microbeta scintillation counting method). Conditions: not given.
T1 sequence (P28223 whole entry): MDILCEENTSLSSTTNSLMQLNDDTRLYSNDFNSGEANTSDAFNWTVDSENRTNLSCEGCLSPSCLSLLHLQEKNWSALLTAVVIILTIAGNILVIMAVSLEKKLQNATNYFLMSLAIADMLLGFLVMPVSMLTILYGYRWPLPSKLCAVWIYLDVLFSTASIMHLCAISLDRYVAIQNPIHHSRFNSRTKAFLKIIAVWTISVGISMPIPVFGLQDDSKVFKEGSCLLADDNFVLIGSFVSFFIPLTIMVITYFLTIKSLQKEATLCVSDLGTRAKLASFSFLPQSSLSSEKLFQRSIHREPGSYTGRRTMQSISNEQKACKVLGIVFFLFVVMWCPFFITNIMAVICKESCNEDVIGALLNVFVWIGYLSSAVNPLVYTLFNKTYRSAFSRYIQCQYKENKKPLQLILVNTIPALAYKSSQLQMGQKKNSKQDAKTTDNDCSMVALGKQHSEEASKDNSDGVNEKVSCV
For CCCOC(=O)[C@@]12C[C@@H]1[C@@H](n1cnc3c(NC(C4CC4)C4CC4)nc(Cl)nc31)[C@H](O)[C@@H]2O, the Ki was > 10000 nM.

These molecules were tested against Adenosine receptor A2a (Homo sapiens, UniProt P29274) (assay: Displacement of [3 H]2-[p-(2-carboxyethyl)phenyl-ethylamino]-5'-N-ethylcarboxamidoadenosine from recombinant human adenosine receptor A2A expressed in HEK293 cell membranes at 10 uM after 60 mins by liquid scintillation counting method relative to control). Conditions: not given.
Adenosine receptor A2a, sequence (P29274 whole entry): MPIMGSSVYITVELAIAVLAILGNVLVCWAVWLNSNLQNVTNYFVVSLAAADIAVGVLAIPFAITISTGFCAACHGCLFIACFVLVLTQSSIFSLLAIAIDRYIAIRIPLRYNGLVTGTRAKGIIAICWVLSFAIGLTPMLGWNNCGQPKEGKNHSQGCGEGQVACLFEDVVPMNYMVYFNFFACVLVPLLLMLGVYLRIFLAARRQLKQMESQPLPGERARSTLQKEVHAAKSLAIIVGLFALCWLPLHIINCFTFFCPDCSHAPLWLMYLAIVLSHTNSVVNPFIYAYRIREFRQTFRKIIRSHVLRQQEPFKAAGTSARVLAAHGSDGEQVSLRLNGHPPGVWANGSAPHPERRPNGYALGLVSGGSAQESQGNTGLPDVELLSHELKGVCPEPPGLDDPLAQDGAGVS
CCCOC(=O)[C@@]12C[C@@H]1[C@@H](n1cnc3c(NC(C4CC4)C4CC4)nc(Cl)nc31)[C@H](O)[C@@H]2O was tested, and the inhibition was 19%.

These molecules were tested against T2, Adenosine receptor A3 (Homo sapiens, UniProt P0DMS8) (assay: Displacement of [125l]N 6-(4-amino-3-iodobenzyl)adenosine-5'-N-methyluronamide from recombinant human A3AR expressed in CHO cell membranes after 60 mins by gamma counting method). Conditions: not given.
T2 sequence (P0DMS8 whole entry): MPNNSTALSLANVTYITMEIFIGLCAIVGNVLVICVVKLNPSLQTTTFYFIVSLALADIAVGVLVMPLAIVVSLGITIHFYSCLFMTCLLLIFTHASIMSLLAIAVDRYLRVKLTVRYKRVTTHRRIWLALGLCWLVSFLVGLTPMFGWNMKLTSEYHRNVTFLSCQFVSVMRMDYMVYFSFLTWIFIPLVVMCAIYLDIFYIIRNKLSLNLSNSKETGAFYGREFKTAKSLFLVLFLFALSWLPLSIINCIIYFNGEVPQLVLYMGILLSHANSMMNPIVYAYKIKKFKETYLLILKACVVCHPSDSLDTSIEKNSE
In the case of CCCOC(=O)[C@@]12C[C@@H]1[C@@H](n1cnc3c(NC(C4CC4)C4CC4)nc(Cl)nc31)[C@H](O)[C@@H]2O, the Ki is reported as 499 nM.

Each molecule was assayed against 5-hydroxytryptamine receptor 1B (Homo sapiens) (UniProt P28222) (assay: Displacement of [3H]5-CT from human 5-HT1BR expressed in HEK cell membranes at 10 uM incubated for 90 mins under dark condition by microbeta scintillation counting method relative to control). Conditions: HEK293.
5-hydroxytryptamine receptor 1B (Homo sapiens), sequence (P28222 whole entry): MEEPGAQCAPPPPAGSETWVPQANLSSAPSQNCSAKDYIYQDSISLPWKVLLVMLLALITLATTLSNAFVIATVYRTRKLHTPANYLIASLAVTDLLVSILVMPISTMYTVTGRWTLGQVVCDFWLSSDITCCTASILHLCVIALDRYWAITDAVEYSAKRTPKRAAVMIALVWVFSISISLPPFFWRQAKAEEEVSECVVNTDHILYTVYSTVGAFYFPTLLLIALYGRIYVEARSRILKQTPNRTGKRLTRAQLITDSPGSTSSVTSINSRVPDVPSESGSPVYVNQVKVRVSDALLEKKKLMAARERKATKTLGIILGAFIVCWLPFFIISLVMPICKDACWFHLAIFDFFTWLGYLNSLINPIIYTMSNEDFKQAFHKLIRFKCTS
For CCCOC(=O)[C@@]12C[C@@H]1[C@@H](n1cnc3c(NC(C4CC4)C4CC4)nc(Cl)nc31)[C@H](O)[C@@H]2O, the inhibition was < 50%.

The molecules below were run against 5-hydroxytryptamine receptor 6 (Homo sapiens) (UniProt P50406) (assay: Displacement of [3H]LSD from human 5-HT6 receptor expressed in HEK cell membranes at 10 uM incubated for 90 mins under dark condition by microbeta scintillation counting method relative to control). Conditions: HEK293.
5-hydroxytryptamine receptor 6 (Homo sapiens), sequence (P50406 whole entry): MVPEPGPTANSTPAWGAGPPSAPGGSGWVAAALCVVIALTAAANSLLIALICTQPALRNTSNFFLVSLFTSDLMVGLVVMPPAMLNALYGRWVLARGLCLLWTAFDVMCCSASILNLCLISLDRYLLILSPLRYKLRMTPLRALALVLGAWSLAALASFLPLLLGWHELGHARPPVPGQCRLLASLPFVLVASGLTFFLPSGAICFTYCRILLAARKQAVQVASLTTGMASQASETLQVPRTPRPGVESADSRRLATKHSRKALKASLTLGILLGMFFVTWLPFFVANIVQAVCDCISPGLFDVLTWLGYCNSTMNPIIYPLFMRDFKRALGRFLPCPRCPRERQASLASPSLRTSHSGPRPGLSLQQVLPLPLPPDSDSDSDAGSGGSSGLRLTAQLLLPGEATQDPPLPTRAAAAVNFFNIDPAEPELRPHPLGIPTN
CCCOC(=O)[C@@]12C[C@@H]1[C@@H](n1cnc3c(NC(C4CC4)C4CC4)nc(Cl)nc31)[C@H](O)[C@@H]2O was tested, and the inhibition was < 50%.

What follows are molecules tested against T3, 5-hydroxytryptamine receptor 2B (Homo sapiens, UniProt P41595) (assay: biochemical). Conditions: not given.
T3 sequence (P41595 whole entry): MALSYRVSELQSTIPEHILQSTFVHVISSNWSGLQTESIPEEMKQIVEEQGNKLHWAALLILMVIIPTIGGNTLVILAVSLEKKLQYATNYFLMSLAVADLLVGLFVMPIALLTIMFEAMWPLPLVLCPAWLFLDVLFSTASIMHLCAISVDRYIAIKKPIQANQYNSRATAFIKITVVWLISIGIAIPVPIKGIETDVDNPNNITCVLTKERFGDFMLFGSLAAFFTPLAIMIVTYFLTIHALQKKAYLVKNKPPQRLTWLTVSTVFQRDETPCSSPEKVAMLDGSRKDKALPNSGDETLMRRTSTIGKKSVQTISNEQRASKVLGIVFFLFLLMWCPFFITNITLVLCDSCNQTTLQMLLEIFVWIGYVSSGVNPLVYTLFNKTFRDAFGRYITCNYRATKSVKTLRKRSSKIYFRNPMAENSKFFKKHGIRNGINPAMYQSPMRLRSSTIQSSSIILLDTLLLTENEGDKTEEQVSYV
Format: cell-based, HEK293
For CCCOC(=O)[C@@]12C[C@@H]1[C@@H](n1cnc3c(NC(C4CC4)C4CC4)nc(Cl)nc31)[C@H](O)[C@@H]2O, the Ki was 45 nM.

The molecules below were run against 5-hydroxytryptamine receptor 1D (Homo sapiens) (UniProt P28221) (assay: Displacement of [3H]5-CT from human 5-HT1D receptor expressed in HEK-T cell membranes at 10 uM incubated for 90 mins under dark condition by microbeta scintillation counting method relative to control). Conditions: not given.
5-hydroxytryptamine receptor 1D (Homo sapiens), sequence (P28221 whole entry): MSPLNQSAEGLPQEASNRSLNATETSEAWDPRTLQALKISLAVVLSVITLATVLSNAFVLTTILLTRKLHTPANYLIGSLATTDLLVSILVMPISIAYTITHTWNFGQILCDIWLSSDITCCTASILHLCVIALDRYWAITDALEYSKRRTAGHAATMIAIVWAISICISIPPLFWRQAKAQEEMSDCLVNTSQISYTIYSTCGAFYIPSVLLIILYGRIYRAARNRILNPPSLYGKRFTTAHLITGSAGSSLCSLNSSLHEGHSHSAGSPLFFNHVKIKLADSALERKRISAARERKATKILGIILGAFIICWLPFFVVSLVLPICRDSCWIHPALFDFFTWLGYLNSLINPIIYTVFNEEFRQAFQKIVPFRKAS
CCCOC(=O)[C@@]12C[C@@H]1[C@@H](n1cnc3c(NC(C4CC4)C4CC4)nc(Cl)nc31)[C@H](O)[C@@H]2O was tested, and the inhibition was < 50%.

The molecules below were run against 5-hydroxytryptamine receptor 4 (Homo sapiens) (UniProt Q13639) (assay: Displacement of [3H]GR113808 from human 5-HT4 receptor at 10 uM incubated for 90 mins under dark condition by microbeta scintillation counting method relative to control). Conditions: not given.
5-hydroxytryptamine receptor 4 (Homo sapiens), sequence (Q13639 whole entry): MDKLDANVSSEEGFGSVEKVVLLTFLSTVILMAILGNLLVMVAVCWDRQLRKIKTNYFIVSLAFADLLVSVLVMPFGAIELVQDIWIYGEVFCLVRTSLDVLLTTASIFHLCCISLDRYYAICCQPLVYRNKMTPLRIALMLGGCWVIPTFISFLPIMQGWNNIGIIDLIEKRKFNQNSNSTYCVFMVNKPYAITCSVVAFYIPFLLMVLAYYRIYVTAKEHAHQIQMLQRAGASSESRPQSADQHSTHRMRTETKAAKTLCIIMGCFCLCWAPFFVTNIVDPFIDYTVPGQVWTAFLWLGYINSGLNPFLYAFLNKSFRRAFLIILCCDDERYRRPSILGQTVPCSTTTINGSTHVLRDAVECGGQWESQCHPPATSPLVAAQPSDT
CCCOC(=O)[C@@]12C[C@@H]1[C@@H](n1cnc3c(NC(C4CC4)C4CC4)nc(Cl)nc31)[C@H](O)[C@@H]2O was tested, and the inhibition was < 50%.

The molecules below were run against T1, 5-hydroxytryptamine receptor 2A (assay: Displacement of [3H]ketanserin from human 5-HT2A receptor expressed in HEK-T cell membranes at 10 uM incubated for 90 mins under dark condition by microbeta scintillation counting method relative to control). Conditions: not given.
CCCOC(=O)[C@@]12C[C@@H]1[C@@H](n1cnc3c(NC(C4CC4)C4CC4)nc(Cl)nc31)[C@H](O)[C@@H]2O was tested, and the inhibition was < 10%.

These molecules were tested against T4, 5-hydroxytryptamine receptor 1A (Homo sapiens) (UniProt P08908) (assay: Displacement of [3H]WAY100635 from human 5-HT1AR expressed in CHO cell membranes at 10 uM incubated for 90 mins under dark condition by microbeta scintillation counting method relative to control). Conditions: not given.
T4 sequence (whole entry): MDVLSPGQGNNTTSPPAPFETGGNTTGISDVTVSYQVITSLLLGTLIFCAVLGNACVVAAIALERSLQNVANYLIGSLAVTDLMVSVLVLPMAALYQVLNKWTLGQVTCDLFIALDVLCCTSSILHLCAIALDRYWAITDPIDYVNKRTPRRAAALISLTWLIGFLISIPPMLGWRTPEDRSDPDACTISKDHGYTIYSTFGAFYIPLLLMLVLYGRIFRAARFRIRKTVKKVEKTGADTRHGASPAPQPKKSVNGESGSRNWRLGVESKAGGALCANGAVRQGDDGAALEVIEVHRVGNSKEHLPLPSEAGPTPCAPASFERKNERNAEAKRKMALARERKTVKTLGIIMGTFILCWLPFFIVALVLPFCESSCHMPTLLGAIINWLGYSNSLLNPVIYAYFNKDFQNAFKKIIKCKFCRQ
In the case of CCCOC(=O)[C@@]12C[C@@H]1[C@@H](n1cnc3c(NC(C4CC4)C4CC4)nc(Cl)nc31)[C@H](O)[C@@H]2O, the inhibition is reported as < 50%.

These molecules were tested against T5, 5-hydroxytryptamine receptor 3A (Homo sapiens) (UniProt P46098) (assay: Displacement of [3H]GR65630 from human 5-HT3 receptor expressed in HEK-T cell membranes at 10 uM incubated for 90 mins under dark condition by microbeta scintillation counting method relative to control). Conditions: not given.
T5 sequence (whole entry): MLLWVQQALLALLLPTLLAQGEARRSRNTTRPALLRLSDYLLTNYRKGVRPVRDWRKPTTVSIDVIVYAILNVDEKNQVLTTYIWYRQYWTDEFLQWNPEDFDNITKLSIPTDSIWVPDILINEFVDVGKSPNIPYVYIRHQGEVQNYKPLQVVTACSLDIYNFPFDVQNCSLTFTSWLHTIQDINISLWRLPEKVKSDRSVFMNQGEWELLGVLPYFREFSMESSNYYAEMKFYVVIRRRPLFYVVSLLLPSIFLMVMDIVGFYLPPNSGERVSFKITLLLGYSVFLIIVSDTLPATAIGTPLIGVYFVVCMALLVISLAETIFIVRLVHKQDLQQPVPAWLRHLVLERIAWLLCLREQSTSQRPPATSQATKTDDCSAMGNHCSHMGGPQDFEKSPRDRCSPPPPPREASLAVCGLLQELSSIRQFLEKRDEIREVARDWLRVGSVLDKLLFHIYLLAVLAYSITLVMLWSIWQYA
In the case of CCCOC(=O)[C@@]12C[C@@H]1[C@@H](n1cnc3c(NC(C4CC4)C4CC4)nc(Cl)nc31)[C@H](O)[C@@H]2O, the inhibition is reported as < 50%.

Each molecule was assayed against Translocator protein (Homo sapiens, UniProt P30536) (assay: Inhibition of TSPO (unknown origin)). Conditions: not given.
Translocator protein, sequence (P30536 whole entry): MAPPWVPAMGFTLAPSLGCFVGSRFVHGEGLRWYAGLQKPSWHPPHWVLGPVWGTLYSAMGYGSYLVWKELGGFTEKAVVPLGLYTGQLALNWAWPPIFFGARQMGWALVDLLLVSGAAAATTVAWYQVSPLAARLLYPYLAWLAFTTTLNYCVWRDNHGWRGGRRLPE
With CCCOC(=O)[C@@]12C[C@@H]1[C@@H](n1cnc3c(NC(C4CC4)C4CC4)nc(Cl)nc31)[C@H](O)[C@@H]2O the Ki was 2200 nM.

The molecules below were run against T6, 5-hydroxytryptamine receptor 2C (Homo sapiens, UniProt P28335) (assay: Displacement of [3H]mesulergine from human 5-HT2CR expressed in Flp-In HEK cell membranes incubated for 90 mins under dark condition by microbeta scintillation counting method). Conditions: not given.
T6 sequence (P28335 whole entry): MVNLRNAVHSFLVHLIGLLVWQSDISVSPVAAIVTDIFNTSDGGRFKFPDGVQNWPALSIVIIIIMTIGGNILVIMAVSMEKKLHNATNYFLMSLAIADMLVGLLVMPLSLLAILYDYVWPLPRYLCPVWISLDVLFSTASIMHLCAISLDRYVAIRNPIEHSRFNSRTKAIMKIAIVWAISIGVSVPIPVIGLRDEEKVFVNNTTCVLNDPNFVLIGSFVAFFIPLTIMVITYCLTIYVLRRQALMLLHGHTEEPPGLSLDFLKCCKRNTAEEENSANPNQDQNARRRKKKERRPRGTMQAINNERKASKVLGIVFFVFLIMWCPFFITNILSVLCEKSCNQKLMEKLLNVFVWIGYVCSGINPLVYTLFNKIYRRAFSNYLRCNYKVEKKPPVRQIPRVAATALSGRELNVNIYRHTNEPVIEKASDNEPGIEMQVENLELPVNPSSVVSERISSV
Design: species or system HEK293
Work on CCCOC(=O)[C@@]12C[C@@H]1[C@@H](n1cnc3c(NC(C4CC4)C4CC4)nc(Cl)nc31)[C@H](O)[C@@H]2O yielded a Ki of 205 nM.

Each molecule was assayed against 5-hydroxytryptamine receptor 5A (Homo sapiens) (UniProt P47898) (assay: Displacement of [3H]LSD from human 5-HT5A receptor expressed in Flp-In-CHO cell membranes incubated for 90 mins under dark condition by microbeta scintillation counting method relative to control). Conditions: not given.
5-hydroxytryptamine receptor 5A (Homo sapiens), sequence (P47898 whole entry): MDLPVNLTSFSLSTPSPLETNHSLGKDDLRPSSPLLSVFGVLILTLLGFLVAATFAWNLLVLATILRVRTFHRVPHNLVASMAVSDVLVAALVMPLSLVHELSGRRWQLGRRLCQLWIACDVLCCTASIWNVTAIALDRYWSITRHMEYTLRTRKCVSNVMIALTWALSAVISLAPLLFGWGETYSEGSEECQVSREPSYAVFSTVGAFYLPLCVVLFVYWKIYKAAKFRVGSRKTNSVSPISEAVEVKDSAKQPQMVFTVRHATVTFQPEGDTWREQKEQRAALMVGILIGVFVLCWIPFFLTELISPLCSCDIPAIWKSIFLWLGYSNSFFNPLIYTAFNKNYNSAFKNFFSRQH
Design: concentration or dose not given beside the values
CCCOC(=O)[C@@]12C[C@@H]1[C@@H](n1cnc3c(NC(C4CC4)C4CC4)nc(Cl)nc31)[C@H](O)[C@@H]2O was tested, and the inhibition was < 50%.

What follows are molecules tested against T3, 5-hydroxytryptamine receptor 2B (assay: not given). Conditions: HEK293, at 10 µM.
In the case of CCCOC(=O)[C@@]12C[C@@H]1[C@@H](n1cnc3c(NC(C4CC4)C4CC4)nc(Cl)nc31)[C@H](O)[C@@H]2O, the inhibition is reported as > 50%.

What follows are molecules tested against 5-hydroxytryptamine receptor 1E (Homo sapiens) (UniProt P28566) (assay: Displacement of [3H]5-HT from human 5-HT1E receptor expressed in HEK cell membranes at 10 uM incubated for 90 mins under dark condition by microbeta scintillation counting method relative to control). Conditions: HEK293.
5-hydroxytryptamine receptor 1E (Homo sapiens), sequence (P28566 whole entry): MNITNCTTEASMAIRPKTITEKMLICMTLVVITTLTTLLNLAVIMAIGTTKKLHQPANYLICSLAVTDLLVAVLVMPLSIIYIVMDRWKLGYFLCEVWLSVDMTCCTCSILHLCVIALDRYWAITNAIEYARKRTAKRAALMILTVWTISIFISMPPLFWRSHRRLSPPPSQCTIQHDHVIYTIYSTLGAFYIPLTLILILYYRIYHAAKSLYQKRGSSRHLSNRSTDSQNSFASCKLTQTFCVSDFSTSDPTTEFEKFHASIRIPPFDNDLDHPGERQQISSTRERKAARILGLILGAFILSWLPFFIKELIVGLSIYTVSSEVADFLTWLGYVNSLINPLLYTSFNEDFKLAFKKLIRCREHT
With CCCOC(=O)[C@@]12C[C@@H]1[C@@H](n1cnc3c(NC(C4CC4)C4CC4)nc(Cl)nc31)[C@H](O)[C@@H]2O the inhibition was < 50%.

What follows are molecules tested against T7, 5-hydroxytryptamine receptor 2C (Homo sapiens) (UniProt P28335) (assay: Displacement of [3H]mesulergine from human 5-HT2CR expressed in Flp-In HEK cell membranes at 10 uM incubated for 90 mins under dark condition by microbeta scintillation counting method relative to control). Conditions: HEK293.
T7 sequence (whole entry): T6 sequence (P28335 whole entry)
In the case of CCCOC(=O)[C@@]12C[C@@H]1[C@@H](n1cnc3c(NC(C4CC4)C4CC4)nc(Cl)nc31)[C@H](O)[C@@H]2O, the inhibition is reported as > 50%.

Each molecule was assayed against T8, Adenosine receptor A1 (Homo sapiens, UniProt P30542) (assay: Displacement of [3H]N6-phenylisopropyladenosine from recombinant human A1AR expressed in CHO cell membranes after 60 mins by liquid scintillation counting method). Conditions: not given.
T8 sequence (P30542 whole entry): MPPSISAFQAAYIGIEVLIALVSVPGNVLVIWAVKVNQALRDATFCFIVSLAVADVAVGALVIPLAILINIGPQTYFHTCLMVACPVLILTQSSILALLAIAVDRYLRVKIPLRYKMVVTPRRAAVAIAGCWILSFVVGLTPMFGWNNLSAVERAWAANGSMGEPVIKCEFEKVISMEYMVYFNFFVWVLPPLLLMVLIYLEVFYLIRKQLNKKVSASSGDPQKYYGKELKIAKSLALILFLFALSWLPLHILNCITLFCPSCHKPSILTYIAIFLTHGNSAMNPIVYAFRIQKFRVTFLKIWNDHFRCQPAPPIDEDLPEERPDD
Work on CCCOC(=O)[C@@]12C[C@@H]1[C@@H](n1cnc3c(NC(C4CC4)C4CC4)nc(Cl)nc31)[C@H](O)[C@@H]2O yielded a Ki of 440 nM.
